{"source": "patent US4409239A", "about": "“Propylene glycol diester solutions of PGE-type compounds” (Syntex (U.S.A.) Inc., priority 1982, dated 1983)", "key": {"[1]": {"experiment": "Stability in peanut oil, USP on storage (comparison)", "assay_type": "physicochemical", "settings": "2 weeks storage at 60° C., 50 mcg per ml peanut oil, 20160 min"}, "[2]": {"experiment": "Stability of an E-type prostaglandin in propylene glycol dicaprylate/dicaprate (Captex 200) on storage", "assay_type": "physicochemical", "settings": "for % Remaining of Initial Drug Concentration: 0.25 mg/ml in Captex 200, sealed glass ampules", "procedure": "A solution of 0.25 mg (dl)-9-keto-11α,15α-dihydroxy-16-phenoxy-17,18,19,20-tetranorprosta-4,5,13-trans-trienoic acid methyl ester per ml in propylene glycol dicaprylate/dicaprate (Captex 200) was made by dissolving said compound in the solvent with the aid of a magnetic stirrer. Aliquots of this solution were filled into glass ampules and sealed. The ampules were then stored at various temperatures for various durations."}}}
{"smiles": "COC(=O)CCC=C=CCC1C(=O)CC(O)C1C=CC(O)COc1ccccc1", "note": "(stereo not drawn) [(dl)-9-keto-11α,15α-dihydroxy-16-phenoxy-17,18,19,20-tetranorprosta-4,5,13-trans-trienoic acid methyl ester]", "values": [{"measurement": "drug remaining", "setting": "[1]", "value": 77.8, "unit": "%"}, {"measurement": "% Remaining of Initial Drug Concentration", "setting": "[2]; 0 month, 45° C.", "value": 100, "unit": "%"}, {"measurement": "% Remaining of Initial Drug Concentration", "setting": "[2]; 0 month, 60° C.", "value": 100, "unit": "%"}, {"measurement": "% Remaining of Initial Drug Concentration", "setting": "[2]; 1 month, 60° C., 43800 min", "value": 97.6, "unit": "%"}, {"measurement": "% Remaining of Initial Drug Concentration", "setting": "[2]; 3 months, 45° C., 131400 min", "value": 100.7, "unit": "%"}, {"measurement": "% Remaining of Initial Drug Concentration", "setting": "[2]; 3 months, 60° C., 131400 min", "value": 90.0, "unit": "%"}, {"measurement": "stability in Captex 200 (in words)", "setting": "[2]; storage at 45° C. and 60° C., 0.25 mg/ml in Captex 200", "value": "quite stable"}]}
